Measurements as given in patent publication US20150080380A1, “Therapeutic Uses” (GLAXOSMITHKLINE INTELLECTUAL PROPERTY DEVELOPMENT LIMITED, priority 2012, published 2015).

Columns and labels:
H3R = target: T1, H3R (Rattus norvegicus, UniProt Q9QYN8); test: Histamine H3R functional inverse agonist assay with OPCs (cAMP assay); format: cell-based; settings: 30 nM to 3 µM compound, Forskolin 3 µM, absence of H3R agonist
T1 construct: endogenous in cells; host or cells: oligodendrocyte precursor cells (OPCs), untransfected
T1 sequence (Q9QYN8 whole entry): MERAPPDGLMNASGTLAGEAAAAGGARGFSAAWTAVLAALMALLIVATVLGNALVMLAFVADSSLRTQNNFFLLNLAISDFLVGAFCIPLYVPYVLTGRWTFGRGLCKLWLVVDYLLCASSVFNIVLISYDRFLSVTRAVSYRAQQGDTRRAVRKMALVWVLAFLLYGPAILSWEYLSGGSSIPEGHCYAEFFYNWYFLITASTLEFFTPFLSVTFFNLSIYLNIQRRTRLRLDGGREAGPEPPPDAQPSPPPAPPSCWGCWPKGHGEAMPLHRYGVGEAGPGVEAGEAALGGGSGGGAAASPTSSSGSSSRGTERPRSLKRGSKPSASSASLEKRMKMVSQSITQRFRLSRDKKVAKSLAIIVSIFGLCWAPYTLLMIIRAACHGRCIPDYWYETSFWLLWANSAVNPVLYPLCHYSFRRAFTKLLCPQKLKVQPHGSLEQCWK
Protocol: Histamine receptor 3 (H3R), expressed on cell surface, is negatively coupled to adenylyl cyclase, which stimulates the formation of cyclic AMP (cAMP). In the absence of histamine, the constitutively active H3R would inhibit intracellular level of cAMP. Inverse agonists of H3R, which block constitutive activity of H3R, thus would raise the cAMP level. The ability of Example compound 2 to inhibit constitutive activity of H3R was determined in a cellular cAMP assay.
For each compound being assayed, OPCs were seeded in PO coated 96-well plate at a density of 20000 cells/well, and cultured in BDM with bFGF (10 ng/ml Petrotech) and PDGF (10 ng/ml Petrotech) for 24 hours. The cells were first treated with different concentration of example compound (30 nM to […]) for 30 minutes. Then the cells were stimulated with Forskolin ([…], Sigma) in the presence of the example compound for 15 minutes. The cAMP concentrations were measured by the cAMP Chemiluminescent Immunoassay Kit (Invitrogen, Cat. No. C10557). The cells were lysed with lysis buffer (60 μL, Invitrogen Kit reagent) at 37° C. for 30 minutes. […] Chemiluminescence signal was measured in a SpectraMax M5 Multi-Mode Microplate Readers (Molecular Devices) for 1 second per well.

[1] = system: remyelination in cuprizone-induced demyelination; test: Mouse cuprizone-induced demyelination model (Black-gold II staining); format: in vivo, C57BL/6 mice; settings: forebrain and hindbrain; for myelin staining intensity of corpus callosum (percentage of mean density of naïve control): vehicle 15.75%; for demyelination area, corpus callosum: vehicle 54.81%
Protocol: The ability of the compound of Example 1 to enhance in vivo remyelination was determined with the mouse cuprizone-induced demyelination model.
The cuprizone model was conducted with the protocol as follows: the C57BL/6 mice at age of 8 weeks were fed with powder mouse food mixed freshly with 0.2% cuprizone (w/w) for 5 weeks to induce demyelination, then animals were allowed to recover (removal of cuprizone from the diet) and administrated with Example compound 1, at 0.3 mg/kg, 1 mg/kg, 3 mg/kg and 10 mg/kg body weight orally, b.i.d. for an additional 9 days prior to sacrifice. The brain samples were collected for assessment of myelination. The compound of Example 1 was formulated as a suspension using 1% aqueous methylcellulose as the vehicle.
Mice were deeply anesthetized and quickly perfused with 0.9% saline via the left cardiac ventricle to drain out blood. Whole brains were taken out and put into 15 ml tube with 4% paraformaldehyde (PFA) for post-fixation overnight, then soaked in 30% sucrose for 24-48 h to dehydrate. For frozen embedding, brains were immediately snap frozen in isopentane mixed with dry ice and then embedded in optimal cutting temperature solution (OCT). Whole brains were sectioned at coronal position from Bregma −2.46 mm to 1.18 mm according to mouse atlas by Paxinos and Franklin (The Mouse Brain in Stereotaxic Coordinates—3rd Edition) with cryostat (MICROM HM525) at a thickness of 30 μm. All sections were put into 96-well plate filled with anti-freezing solution [300 g sucrose dissolved in 500 ml 0.1 M PB solution (combine 11.505 g Na2HPO4 and 2.275 g NaH2PO4, dilute to 1 L with distilled water, adjust pH to 7.4) plus 300 ml Ethylene glycol and dilute to 1 L with distilled water]. For Black-gold II staining, 2 sections from forebrain around the bregma 0.86 mm and 2 sections from hindbrain around the bregma −1.58 mm for each mouse respectively were chosen according to mouse atlas by Paxinos and Franklin. Black-gold II staining for detection of myelination was performed according to a protocol adapted from the manufacturer (AG105, Millipore). Briefly, 2 free-floating sections from forebrain and 2 sections from hindbrain were rehydrated 2× in MilliQ water for 2 minutes each time and then stained in a 24-well plate with 0.3% Black-gold II solution at 60° C. for 20 minutes. The sections were monitored to determine the extent of staining. When the finest myelinated fibers were stained dark red to black, the staining process was stopped. The sections were then rinsed 2× in MilliQ water for 2 minutes each time. Then the sections were treated with Sodium thiosulfate solution (1%) for 6 minutes at 60° C. After rinsing in PBST (0.05% Triton X100 in PBS), sections were mounted on slides (Leica Microsystems Plus Slides) and further air-dried on 37° C. heating platform for 2-4 hours. The dehydrated slides were coverslipped with robotic coverslipper (CV5030, Leica). Stained slides were scanned by Scanscope (Aperio Technologies Inc.). Digital images of central corpus callosum or cortex close to cingulum were captured using ImageScope (Aperio Technologies Inc.) at the magnification of 20×.
Image-Pro 6.3 software (Media Cybernetics, Bethesda, Md. 20814 USA) was used for subsequent quantitative evaluation. Threshold was set to Black-gold II staining in each gated corpus callosum and held constant for images obtained at equal objectives and light intensities on slides that were processed. Two parameters were used here: area and IOD (Integrated Optical Density). For measurement of demyelination area, all digital images were set under the same colour range after converted to a greyscale value of 8. Demyelination area indicated by void of Black-gold staining and total area of central corpus callosum at 20× magnification were measured separately on each image. Mean demyelination area was calculated as: (demyelination area/total area of central corpus callosum)×100. […]

Row | Forskolin-stimulated cAMP level in primary OPCs (H3R) | SMILES | myelin staining intensity of corpus callosum (percentage of mean density of naïve control) ([1]; 0.3 mg/kg orally b.i.d. 9 days) | demyelination area, corpus callosum ([1]; 0.3 mg/kg orally b.i.d. 9 days) | myelin staining intensity of corpus callosum (percentage of mean density of naïve control) ([1]; 1 mg/kg orally b.i.d. 9 days) | demyelination area, corpus callosum ([1]; 1 mg/kg orally b.i.d. 9 days) | myelin staining intensity of corpus callosum (percentage of mean density of naïve control) ([1]; 3 mg/kg orally b.i.d. 9 days) | demyelination area, corpus callosum ([1]; 3 mg/kg orally b.i.d. 9 days) | myelin staining intensity of corpus callosum (percentage of mean density of naïve control) ([1]; 10 mg/kg orally b.i.d. 9 days, P<0.05) | demyelination area, corpus callosum ([1]; 10 mg/kg orally b.i.d. 9 days, P<0.01)
1 | increased | c1cc2c(cc1-c1noc(CC3CCN(C4CCC4)CC3)n1)OCO2 [Example compound 2, 3-(benzo[d][1,3]dioxol-5-yl)-5-((1-cyclobutylpiperidin-4-yl)methyl)-1,2,4-oxadiazole] |  |  |  |  |  |  |  | 
2 |  | O=C1CCCN1c1ccc(Oc2ccc3c(c2)CCN(C2CCC2)CC3)nc1 [Example compound 1, 1-{6-[(3-cyclobutyl-2,3,4,5-tetrahydro-1H-3-benzazepin-7-yl)oxy]-3-pyridinyl}-2-pyrrolidinone] | 18.61%±1.01% | 46.82%±3.54% | 22.00%±3.41% | 38.45%±7.55% | 28.32%±7.76% | 41.22%±11.14% | 26.36%±3.10% | 27.62%±5.20%
